# Assay results taken from ChEMBL document CHEMBL1201862, “PubChem BioAssay data set” (2004).
# Active and inactive are the calls of the source.
# Columns and labels:
# [1] = molecular target: T1, Long-chain-fatty-acid--AMP ligase FadD28 (Mycobacterium tuberculosis, UniProt P9WQ59); assay: Fluorescence polarization aasay to screen for inhibitors that compete for the binding of FadD28 to a bisubstrate Measured in Biochemical System Using Plate Reader - 2147-01_Inhibitor_Dose_CherryPick_Activity.; type: functional, Mycobacterium tuberculosis H37Rv
# T1 sequence (P9WQ59 whole entry): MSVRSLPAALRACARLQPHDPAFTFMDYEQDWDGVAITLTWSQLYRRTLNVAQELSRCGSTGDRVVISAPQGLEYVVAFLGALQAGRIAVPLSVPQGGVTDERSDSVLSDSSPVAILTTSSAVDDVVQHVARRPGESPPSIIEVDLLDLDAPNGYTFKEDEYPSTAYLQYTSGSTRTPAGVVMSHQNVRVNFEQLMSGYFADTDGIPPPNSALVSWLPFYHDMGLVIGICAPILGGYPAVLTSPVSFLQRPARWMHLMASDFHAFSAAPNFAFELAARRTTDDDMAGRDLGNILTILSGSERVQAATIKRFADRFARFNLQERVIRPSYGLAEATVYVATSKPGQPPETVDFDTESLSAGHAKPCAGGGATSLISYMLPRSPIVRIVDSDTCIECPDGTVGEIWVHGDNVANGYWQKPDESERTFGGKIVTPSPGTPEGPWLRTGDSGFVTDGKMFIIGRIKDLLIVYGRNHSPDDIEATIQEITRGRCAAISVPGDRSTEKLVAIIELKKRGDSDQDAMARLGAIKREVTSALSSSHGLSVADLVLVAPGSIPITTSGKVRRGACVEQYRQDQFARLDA
# Mu-type opioid receptor = Mu-type opioid receptor (Homo sapiens, UniProt P35372); type: functional, cell-based;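 also: U2OS cells with beta-arrestin recruitment to OPRM1 by beta-gal complementation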
# [2] = molecular target: 5-hydroxytryptamine receptor 2A (Mus musculus, UniProt P35363); type: functional, cell-based;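 also: CHO-K1 cells with tagged receptor and beta-arrestin; agonist potency measured as compound-induced activation of the receptor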
# [3] = inhibitors of firefly luciferase expression or activity, dose response, H4 neuroglioma cells, luminescence (AID 1990); type: functional, cell-based
# [4] = Luminescence Cell-Based Dose Response HTS to Identify Inhibitors of 5'UTR Stem-Loop Driven Prion Protein mRNA Translation in H4 Neuroglioblastoma Cells. [Related pubchem assays: 1827 (Project Summary), 1813 (Primary HTS)]; type: functional
# [5] = inhibitors of SNCA 5'UTR-driven reporter translation, confirmation, H4 neuroglioma cells, luminescence (AID 1988); type: functional, cell-based
# Beta-galactosidase = Beta-galactosidase (Escherichia coli, UniProt Q8VNN2); assay: PubChem AID 485352; type: functional
# Large T antigen = Large T antigen (Simian virus 40, UniProt P03070); type: functional, Betapolyomavirus macacae;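 also: Confirmatory-stage PubChem screen for compounds that inhibit SV40 T antigen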
# [6] = molecular target: T2, Type-1 angiotensin II receptor (Homo sapiens, UniProt P30556); assay: AT1 receptor antagonists, dose response, selectivity assay for APJ receptor antagonist project, cell-based, uHTS hits (AID 463214); type: functional;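 also: antagonist potency against angiotensin II stimulated AT1 response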
# T2 sequence (P30556 whole entry): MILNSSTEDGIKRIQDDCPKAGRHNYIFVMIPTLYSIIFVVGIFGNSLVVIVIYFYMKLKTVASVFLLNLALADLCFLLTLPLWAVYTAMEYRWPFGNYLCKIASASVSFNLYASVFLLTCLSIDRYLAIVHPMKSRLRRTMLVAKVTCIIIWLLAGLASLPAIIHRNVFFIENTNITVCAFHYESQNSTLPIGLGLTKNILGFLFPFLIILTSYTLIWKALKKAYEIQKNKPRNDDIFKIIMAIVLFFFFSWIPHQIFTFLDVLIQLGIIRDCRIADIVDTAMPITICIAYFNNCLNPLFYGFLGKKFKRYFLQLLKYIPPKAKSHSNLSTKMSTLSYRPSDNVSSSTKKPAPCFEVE
# [7] = molecular target: T3, Heat shock factor protein 1 (Mus musculus, UniProt P38532); assay: HSF1 potentiators in luciferase reporter cells, confirmation, cell-based, NIH3T3, luminescence, dose retest (AID 435004); type: functional;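 also: stress induced by proteasome inhibitor MG132 added 30 min after compound; luciferase reporter driven by HSF1 response element in NIH3T3 cells; actives raise luminescence as potentiators of the MG132 stress response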
# T3 sequence (P38532 whole entry): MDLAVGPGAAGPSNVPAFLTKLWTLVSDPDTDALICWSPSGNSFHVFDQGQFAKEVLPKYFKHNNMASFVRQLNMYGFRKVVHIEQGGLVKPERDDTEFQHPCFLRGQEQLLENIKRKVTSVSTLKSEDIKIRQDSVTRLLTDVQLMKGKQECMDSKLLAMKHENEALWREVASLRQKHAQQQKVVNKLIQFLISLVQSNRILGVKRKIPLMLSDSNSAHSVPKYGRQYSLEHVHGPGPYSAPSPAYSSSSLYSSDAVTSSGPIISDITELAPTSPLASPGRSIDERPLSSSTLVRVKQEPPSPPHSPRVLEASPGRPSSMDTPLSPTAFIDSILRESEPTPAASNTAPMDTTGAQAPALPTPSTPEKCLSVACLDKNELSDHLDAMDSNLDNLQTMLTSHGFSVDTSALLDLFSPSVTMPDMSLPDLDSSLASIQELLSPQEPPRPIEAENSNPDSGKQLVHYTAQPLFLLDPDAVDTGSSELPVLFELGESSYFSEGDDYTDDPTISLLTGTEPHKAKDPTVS
# [8] = molecular target: T4, Adenosylmethionine-8-amino-7-oxononanoate aminotransferase (Mycobacterium tuberculosis, UniProt P9WQ81); assay: Mycobacterium tuberculosis BioA enzyme inhibitor Measured in Biochemical System Using Plate Reader - 2163-02_Inhibitor_Dose_CherryPick_Activity.; type: functional, Mycobacterium tuberculosis UT205
# T4 sequence (P9WQ81 whole entry): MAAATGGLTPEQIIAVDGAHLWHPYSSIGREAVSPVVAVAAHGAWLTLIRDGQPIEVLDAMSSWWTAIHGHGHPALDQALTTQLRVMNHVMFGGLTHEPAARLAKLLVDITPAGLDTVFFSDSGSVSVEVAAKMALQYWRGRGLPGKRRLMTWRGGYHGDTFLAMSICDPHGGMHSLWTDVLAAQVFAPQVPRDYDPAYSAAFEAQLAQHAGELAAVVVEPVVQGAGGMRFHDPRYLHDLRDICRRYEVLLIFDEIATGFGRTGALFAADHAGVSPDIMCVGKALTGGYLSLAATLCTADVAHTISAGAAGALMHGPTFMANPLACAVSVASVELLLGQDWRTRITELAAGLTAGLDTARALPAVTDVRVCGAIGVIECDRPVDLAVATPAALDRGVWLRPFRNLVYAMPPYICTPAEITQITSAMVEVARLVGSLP
# Chain of 5-hydroxytryptamine receptor 2A (P35363 whole entry): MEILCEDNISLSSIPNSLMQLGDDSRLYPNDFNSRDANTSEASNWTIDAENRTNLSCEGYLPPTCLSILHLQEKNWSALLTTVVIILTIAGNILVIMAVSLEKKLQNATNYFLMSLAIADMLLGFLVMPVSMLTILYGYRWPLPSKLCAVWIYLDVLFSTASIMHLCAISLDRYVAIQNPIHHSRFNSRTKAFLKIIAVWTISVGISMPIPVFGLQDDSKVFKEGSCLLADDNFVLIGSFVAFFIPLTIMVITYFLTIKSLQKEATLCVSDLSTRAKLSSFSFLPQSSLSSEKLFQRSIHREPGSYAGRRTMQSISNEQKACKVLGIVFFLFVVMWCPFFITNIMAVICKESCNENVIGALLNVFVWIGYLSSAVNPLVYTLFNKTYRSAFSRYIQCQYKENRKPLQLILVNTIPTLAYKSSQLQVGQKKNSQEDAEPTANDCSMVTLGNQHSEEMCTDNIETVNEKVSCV
# Chain of Mu-type opioid receptor (P35372 whole entry): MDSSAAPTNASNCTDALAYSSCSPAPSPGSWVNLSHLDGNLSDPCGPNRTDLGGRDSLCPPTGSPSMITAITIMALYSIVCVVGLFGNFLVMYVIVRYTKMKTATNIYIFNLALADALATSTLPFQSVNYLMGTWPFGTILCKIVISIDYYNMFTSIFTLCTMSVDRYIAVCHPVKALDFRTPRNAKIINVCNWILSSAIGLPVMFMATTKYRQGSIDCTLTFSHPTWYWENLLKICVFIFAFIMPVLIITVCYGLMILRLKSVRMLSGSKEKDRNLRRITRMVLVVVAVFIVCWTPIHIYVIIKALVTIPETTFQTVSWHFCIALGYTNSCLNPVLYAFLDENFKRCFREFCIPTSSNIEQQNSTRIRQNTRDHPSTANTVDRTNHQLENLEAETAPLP
# Chain of Beta-galactosidase (Q8VNN2 whole entry): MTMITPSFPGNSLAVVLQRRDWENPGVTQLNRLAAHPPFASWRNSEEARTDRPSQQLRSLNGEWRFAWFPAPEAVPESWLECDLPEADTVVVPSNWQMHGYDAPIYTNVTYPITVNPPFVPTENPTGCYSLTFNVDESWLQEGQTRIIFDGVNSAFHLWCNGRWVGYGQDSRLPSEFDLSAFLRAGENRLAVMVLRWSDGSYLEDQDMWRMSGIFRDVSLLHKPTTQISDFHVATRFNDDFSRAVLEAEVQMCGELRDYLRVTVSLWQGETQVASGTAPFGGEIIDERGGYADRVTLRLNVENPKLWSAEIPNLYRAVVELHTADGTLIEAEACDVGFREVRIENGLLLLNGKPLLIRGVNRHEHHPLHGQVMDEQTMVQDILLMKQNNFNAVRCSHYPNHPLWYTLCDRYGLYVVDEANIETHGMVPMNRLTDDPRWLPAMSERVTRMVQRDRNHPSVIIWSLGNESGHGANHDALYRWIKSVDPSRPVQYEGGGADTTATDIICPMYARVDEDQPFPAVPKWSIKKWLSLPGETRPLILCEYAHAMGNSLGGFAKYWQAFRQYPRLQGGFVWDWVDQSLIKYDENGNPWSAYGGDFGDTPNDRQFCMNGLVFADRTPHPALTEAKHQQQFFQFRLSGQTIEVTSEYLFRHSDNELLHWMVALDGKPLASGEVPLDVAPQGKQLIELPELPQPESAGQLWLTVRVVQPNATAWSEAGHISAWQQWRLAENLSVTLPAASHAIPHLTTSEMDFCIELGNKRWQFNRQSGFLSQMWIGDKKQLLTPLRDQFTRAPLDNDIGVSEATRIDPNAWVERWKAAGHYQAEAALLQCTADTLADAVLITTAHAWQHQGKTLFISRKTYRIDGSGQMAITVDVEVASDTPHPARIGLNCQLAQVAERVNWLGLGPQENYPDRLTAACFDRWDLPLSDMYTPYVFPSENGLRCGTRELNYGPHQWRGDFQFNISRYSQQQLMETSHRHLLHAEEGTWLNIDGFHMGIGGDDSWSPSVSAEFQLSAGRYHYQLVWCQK
# Chain of Large T antigen (P03070 whole entry): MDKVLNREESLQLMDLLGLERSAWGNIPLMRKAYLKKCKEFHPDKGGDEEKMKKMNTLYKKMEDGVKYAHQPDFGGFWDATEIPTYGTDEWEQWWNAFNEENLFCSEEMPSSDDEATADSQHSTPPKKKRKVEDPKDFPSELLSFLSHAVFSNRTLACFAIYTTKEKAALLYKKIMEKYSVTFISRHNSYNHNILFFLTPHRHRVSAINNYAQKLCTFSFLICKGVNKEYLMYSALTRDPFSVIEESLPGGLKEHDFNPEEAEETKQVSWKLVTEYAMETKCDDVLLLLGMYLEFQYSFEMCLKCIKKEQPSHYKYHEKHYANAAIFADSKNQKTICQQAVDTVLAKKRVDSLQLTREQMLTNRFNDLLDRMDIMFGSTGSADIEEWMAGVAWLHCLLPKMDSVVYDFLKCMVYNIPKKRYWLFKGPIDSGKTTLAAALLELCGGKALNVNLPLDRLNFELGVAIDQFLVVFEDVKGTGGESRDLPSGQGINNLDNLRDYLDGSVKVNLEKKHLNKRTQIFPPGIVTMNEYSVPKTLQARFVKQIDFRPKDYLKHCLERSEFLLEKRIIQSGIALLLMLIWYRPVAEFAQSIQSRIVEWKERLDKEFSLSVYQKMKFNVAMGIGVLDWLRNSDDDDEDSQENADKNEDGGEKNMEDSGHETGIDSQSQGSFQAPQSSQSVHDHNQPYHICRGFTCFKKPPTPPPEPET
smiles,measurement,setting,value
CCCC(=O)C1=C(c2ccccc2)C(C#N)(C#N)C(C#N)=C1N,AC50,[1],32 µM (inactive)
CC1(C)C(C=C(Cl)Cl)C1C(=O)N1CCN(Cc2ccccc2)CC1 (stereo unspecified),EC50,Mu-type opioid receptor,92.5 µM (inactive)
same,EC50,[2],1.21 µM (active)
O=C(CCN1CCN(c2ccccc2F)CC1)Nc1ccc2c(c1)OCO2,EC50,[3],> 120 µM (not active)
same,EC50,[4],> 120 µM (not active)
same,EC50,[5],> 120 µM (not active)
same,EC50,Mu-type opioid receptor,92.5 µM (inactive)
same,EC50,[2],76.1 µM (inactive)
CCSC1(SCC)N=C(N)C2(C#N)C(c3ccc(OC)c(OC)c3OC)C12C#N (stereo unspecified),EC50,Beta-galactosidase,> 40 µM (inactive)
same,IC50,Large T antigen,> 100 µM (active)
same,IC50,[6],27.5 µM (not active)
same,EC50,[7],6.63 µM (active)
O=C(CN1C(=O)C2CC=CCC2C1=O)OCC(=O)c1ccc(Cl)c([N+](=O)[O-])c1 (stereo unspecified),EC50,Beta-galactosidase,> 40 µM (inactive)
same,IC50,[6],16.3 µM (active)
Cc1ccc(NC(=O)CSc2nc(=O)n(CCCN3CCOCC3)c3c2CCCC3)cc1F,AC50,[8],3.18 µM (active)
COc1ccccc1NC(=O)N[C@@H]1CC[C@H](CCn2cc(-c3cccnc3)nn2)O[C@H]1CO,AC50,[8],2.59 µM (active)
